Assay results from PubChem BioAssay (NCI).
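Growth conditions: 96-well plates. Treatment: test compound, 48 hours, 5 concentrations. Analysis: linear interpolation between bracketing concentrations; unreached endpoints set to highest concentration. TGI marks complete inhibition of growth.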 *1 amine or outer side, *2 acyl side, *3 side chain or, on linkers, in order; H or OH if unused. Where a SMILES comes first, the peptide text is derived from it. Bridges are numbered along the chain shown (N, C = ends). [ ]: non-standard residue; d: D form. The star is where a group is joined. ξ: configuration not given here. X34 = O=C(C(CCCCNO[*:3])N[*:1])[*:2]; Fmoc = O=C(OCC1c2ccccc2-c2ccccc21)*; ξW = NC(Cc1c[nH]c2ccccc12)C(=O)O; ξP = O=C(O)C1CCCN1

How the values were obtained:
Assay in all cases: NCI anticancer screen, dose series, 48 h
[1] = system: RPMI-8226 leukemia
[2] = system: LOX IMVI melanoma
[3] = system: SK-MEL-5 melanoma
[4] = system: CAKI-1 renal
[5] = system: SF-295 CNS
[6] = system: OVCAR-5 ovarian
[7] = system: MALME-3M melanoma
[8] = system: NCI-H23 lung
[9] = system: HCT-15 colon
[10] = system: NCI/ADR-RES ovarian

| SMILES | TGI [1] [µM] | TGI [2] [µM] | TGI [3] [µM] | TGI [4] [µM] | TGI [5] [µM] | TGI [6] [µM] | TGI [7] [µM] | TGI [8] [µM] | TGI [9] [µM] | TGI [10] [µM] |
| --- | --- | --- | --- | --- | --- | --- | --- | --- | --- | --- |
| COCCOCOc1ccc(OCc2ccccc2)cc1 | > 100 | > 100 | > 100 | > 100 | > 100 | > 100 | > 100 | > 100 | > 100 | > 100 |
| CCOc1cc(NC(C)=O)ccc1C(=O)NNC(=O)c1ccccc1OC(C)=O | > 28.6 | > 100 | 22.6 | > 50 | > 100 | > 89.4 | > 100 | > 100 | > 100 | > 78.7 |
| Nc1nc2cc3nc(N)c(N)nc3cc2nc1N | > 100 | > 100 | > 100 | > 100 | > 100 | > 100 | > 100 | > 100 | > 100 | > 100 |
| O=C1CCC[C@@H]2NC[C@@H](c3ccc4c(c3)OCO4)[C@H]12 | > 25 | > 25 | > 25 | > 25 | > 25 | > 25 | > 25 | > 25 | > 25 | > 25 |
| C=C1CC(COc2cc(=O)oc3ccccc23)(c2ccccc2)OC1=O (stereo not given) | 4.01 | 3.2 | 3.35 | 2.67 | 22.7 | 21.4 | 3.11 | 4.92 | 3.78 | 25.1 |
| C[N+]1=C2[B-](C(C)(C)C)=[N+](C(C)(C)C)[B-]2(C(C)(C)C)[N+](C)=C2[B-](C(C)(C)C)=[N+](C(C)(C)C)[B-]21C(C)(C)C (stereo not given) | > 100 | > 100 | > 100 | > 100 | > 100 | > 100 | > 100 | > 100 | > 100 | > 100 |
| O=c1nc(N2CCN(c3ccccc3)CC2)ccn1C1OC(CO)C(O)C1O (stereo not given) | > 100 | > 100 | > 100 | > 100 | > 100 | > 100 | > 100 | > 100 | > 100 | > 100 |
| OC1C2[C@@H](O)CCCN2C[C@@H](O)[C@H]1O (stereo not given in full) | > 100 | > 100 | > 100 | > 100 | > 100 | > 100 | > 100 | > 100 | > 100 | > 100 |
| NC(=O)CNC(=O)C1CCCN1C(=O)C1CCCCNOC(=O)CC[C@@H](NC(=O)OCC2c3ccccc3-c3ccccc32)C(=O)NC(Cc2c[nH]c3ccccc23)C(=O)N1 (stereo not given in full) (Fmoc-[dE][ξW][X34][ξP]G-NH2; ester 1-3) | > 100 | > 100 | > 100 | > 100 | > 100 | > 100 | > 100 | > 100 | > 100 | > 100 |
| CN(C)CCCOc1nc2c(c(=O)n(C)c(=O)n2C)n1C (tested in a mixture with another compound) | > 100 | 9.8 | 48.6 | 66.3 | > 100 | > 100 | 27.4 | 97.6 | 42.9 | > 100 |
| CC(C)(N=NC(C)(C)C(=O)NCCO)C(=O)NCCO | > 100 | > 100 | > 100 | > 100 | > 100 | > 100 | > 100 | > 100 | > 100 | > 100 |
| CC(=O)OCC(C)C1=C(O)C(=O)C2(C)C/C=C(/C)CC/C=C(\C)CCC(O)C(C)CCC12 (stereo not given) | 39.2 | 33.1 | 32.1 | 35.5 | 29.9 | 31.6 | 31.8 | 36.6 | 36.2 | 44 |
| CCN1CC2=C(NC(=S)NC2c2ccc(Cl)cc2)/C(=C/c2ccc(Cl)cc2)C1 (stereo not given) | 90.9 | > 100 | > 100 | > 100 | > 100 | > 100 | > 100 | > 100 | > 100 | > 100 |
| CC(C)c1ccc2[nH]c(O)c(-c3[nH]c4ccccc4c3N=O)c2c1 | 22.3 | 17.7 | 15.8 | 22.9 | 16.3 | 30.5 | 14.4 | 16.1 | 14.8 | 22 |
| Cc1nnc2n1N=C(c1cc(F)c(Cl)cc1Cl)/C(=C/c1ccc(Cl)cc1)S2 | 44 | 28.3 | 41.3 | 41.4 | 35.5 | 28 | 58.9 | 48.8 | 35.2 | 34.2 |
| CC(C)Sc1nc(C#N)cc2c1CCCC2 | 68.9 | 70.3 | 33.2 | > 100 | > 100 | > 100 | > 100 | > 100 | > 100 | > 100 |
| CCCCCCCCCCCCCCCCCCNc1ccn(C2OC(COP(=O)(O)OCC3OC(n4ccc(NC(=O)CCCCCCCCCCCCCCCCC)nc4=O)C(OC(C)=O)C3OC(C)=O)C(OC(C)=O)C2OC(C)=O)c(=O)n1 (stereo not given) | > 100 | > 100 | > 100 | > 100 | > 100 | > 100 | > 100 | > 100 | > 100 | > 100 |
| NC(=O)N/N=C(\Cc1nc2ccc(Cl)cc2[nH]c1=O)C(=O)Nc1ccc(Cl)cc1Cl | > 100 | > 100 | > 100 | > 100 | > 100 | > 100 | > 100 | > 100 | > 100 | > 100 |
